Values of other authors, collected in patent US20100119576A1, “USE OF ONE OR MORE OF THE ELEMENTS FROM THE GROUP YTTRIUM, NEODYMIUM AND ZIRCONIUM, AND PHARMACEUTICAL COMPOSITIONS WHICH CONTAIN THOSE ELEMENTS” (BIOTRONIK VI PATENT AG, priority 2002, published 2010).

Test system: Klebsiella pneumoniae strain 204 and K9
Details: 142 mM Y(OH)3

For [OH-].[OH-].[OH-].[Y+3] [Y(OH)3], the “proliferation of K. pneumoniae” value is listed as “increased proliferation”.
